Assay results taken from the NIST ThermoML archive (doi:10.1016/j.jct.2014.06.030).

Assay: xn = mol fraction of the nth substance listed
Conditions: 100 kPa, Liquid; for speed of sound: Sing-around technique in a fixed-path interferometer; for mass density: Vibrating tube method

C1CCOCC1 [tetrahydropyran] + C1CCCCC1
Conditions | mass density, 298.15 K [kg/m3] | mass density, 303.15 K [kg/m3] | mass density, 308.15 K [kg/m3] | speed of sound, 298.15 K [m/s] | speed of sound, 303.15 K [m/s] | speed of sound, 308.15 K [m/s]
x1 = 0.0987 | 782.47 | 777.69 | 772.88 | 1251.6 | 1226.7 | 1202.3
x1 = 0.1432 | 786.46 | 781.65 | 776.83 | 1250.7 | 1225.6 | 1201
x1 = 0.1876 | 790.51 | 785.69 | 780.84 | 1249.8 | 1224.6 | 1199.8
x1 = 0.2378 | 795.2 | 790.36 | 785.49 | 1249 | 1223.6 | 1198.7
x1 = 0.2791 | 799.14 | 794.28 | 789.39 | 1248.5 | 1223 | 1197.8
x1 = 0.3165 | 802.76 | 797.88 | 792.98 | 1248.1 | 1222.6 | 1197.3
x1 = 0.3782 | 808.86 | 803.96 | 799.03 | 1247.9 | 1222.4 | 1197
x1 = 0.4237 | 813.45 | 808.53 | 803.59 | 1248 | 1222.5 | 1197.1
x1 = 0.4521 | 816.36 | 811.43 | 806.48 | 1248.3 | 1222.7 | 1197.4
x1 = 0.4982 | 821.15 | 816.2 | 811.24 | 1248.8 | 1223.3 | 1198.1
x1 = 0.5318 | 824.7 | 819.74 | 814.76 | 1249.5 | 1224 | 1198.9
x1 = 0.5643 | 828.18 | 823.2 | 818.21 | 1250.2 | 1224.9 | 1199.9
x1 = 0.5918 | 831.15 | 826.17 | 821.16 | 1251 | 1225.7 | 1200.8
x1 = 0.6236 | 834.62 | 829.63 | 824.61 | 1252 | 1226.8 | 1202.1
x1 = 0.6982 | 842.94 | 837.92 | 832.88 | 1254.8 | 1230 | 1205.6
x1 = 0.7341 | 847.03 | 841.99 | 836.93 | 1256.4 | 1231.7 | 1207.7
x1 = 0.7949 | 854.07 | 849.02 | 843.94 | 1259.3 | 1235 | 1211.4
x1 = 0.8632 | 862.2 | 857.11 | 852 | 1262.9 | 1238.9 | 1215.8
